Molecular target: T1, mouse c-fms (Mus musculus, UniProt P09581)
T1 construct: Macrophage-like cell line BAC-1.2F5 which expresses c-fms as a M-CSF receptor on cell membranes; endogenous in cells; host or cells: BAC-1.2F5 mouse macrophage-like cell line
T1 sequence (P09581 20-977): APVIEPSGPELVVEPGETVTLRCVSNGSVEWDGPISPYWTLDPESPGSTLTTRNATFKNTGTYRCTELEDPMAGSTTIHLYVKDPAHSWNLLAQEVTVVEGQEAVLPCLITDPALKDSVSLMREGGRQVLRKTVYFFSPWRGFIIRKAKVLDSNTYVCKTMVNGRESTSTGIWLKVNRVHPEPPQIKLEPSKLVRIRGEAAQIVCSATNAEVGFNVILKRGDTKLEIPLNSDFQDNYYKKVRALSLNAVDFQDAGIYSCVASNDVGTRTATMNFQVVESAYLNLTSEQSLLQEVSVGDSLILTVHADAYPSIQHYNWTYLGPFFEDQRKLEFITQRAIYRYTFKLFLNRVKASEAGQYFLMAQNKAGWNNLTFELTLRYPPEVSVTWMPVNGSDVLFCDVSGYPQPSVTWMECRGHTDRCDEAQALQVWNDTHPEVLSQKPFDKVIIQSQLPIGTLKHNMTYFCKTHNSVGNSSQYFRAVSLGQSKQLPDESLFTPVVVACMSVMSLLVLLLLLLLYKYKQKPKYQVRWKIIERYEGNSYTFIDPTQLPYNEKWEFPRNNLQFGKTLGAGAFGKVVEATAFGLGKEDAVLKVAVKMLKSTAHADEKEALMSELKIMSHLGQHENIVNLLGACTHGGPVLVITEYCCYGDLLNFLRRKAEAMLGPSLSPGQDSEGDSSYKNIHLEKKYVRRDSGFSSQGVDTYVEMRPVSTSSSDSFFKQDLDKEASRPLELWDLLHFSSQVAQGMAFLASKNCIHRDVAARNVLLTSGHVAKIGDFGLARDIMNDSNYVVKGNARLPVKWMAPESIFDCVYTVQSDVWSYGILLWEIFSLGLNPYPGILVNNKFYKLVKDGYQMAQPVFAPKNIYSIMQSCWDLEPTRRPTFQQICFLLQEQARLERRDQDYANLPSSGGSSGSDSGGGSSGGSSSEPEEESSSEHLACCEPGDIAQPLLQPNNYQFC
Assay: Inhibition of c-fms autophosphorylation in macrophage-like cell line BAC-1.2F5 by M-CSF stimulation (ELISA)
Type: cell-based
Details: BAC-1.2F5 cells, human recombinant M-CSF 50 ng/ml, read-out: c-fms autophosphorylation 50% inhibitory concentration (IC50)
Method: Macrophage-like cell line BAC-1.2F5 which expresses c-fms as a M-CSF receptor on cell membranes (CLAUDIA M. et al., J. Cell. Physiol., 130, 420-427 (1987), “Isolation and Characterization of a Cloned Growth Factor Dependent Macrophage Cell Line, BAC1.2F5”) was cultured at 37° C. in a DMEM medium containing L-cell supernatant and 10% fetal calf serum (GIBCO BRL) in a 5% CO2 incubator until about 50 to 70% confluent. The harvested cells were inoculated into wells, each containing the same medium, in a collagen type I coat 96-well flat-bottom plate in an amount of 5.0×10^4 per well, and cultured at 37° C. for 12 hr. Thereafter, the medium was replaced with a DMEM medium containing a 0.1% fetal calf serum and cultured for 12 hr. Thereafter, a test compound dissolved in dimethyl sulfoxide was added to each well, and cells were incubated at 37° C. for one hr. Human recombinant M-CSF was added to a final concentration of 50 ng/ml, and cells were stimulated at 37° C. for 6 min. After the medium was removed, 50 μl of a solubilization buffer (20 mM HEPES (pH 7.4), 150 mM NaCl, 0.2% Triton X-100, 10% glycerol, 5 mM sodium orthovanadylate, 5 mM disodium ethylenediaminetetraacetate, and 2 mM Na4P2O7) was added thereto. The mixture was shaken at 4° C. for 2 hr to prepare a cell extract as an assay sample which was then used for an ELISA assay.
The plate for the ELISA assay was prepared as follows. Phosphate buffered saline (50 μl, pH 7.4) containing 5 μg/ml of anti-phospho-tyrosine antibody (PY20; Transduction Laboratories) was added to a microplate for ELISA (Maxisorp; purchased from NUNC), followed by standing at 4° C. overnight to be immobilized on the wells. Thereafter, each well was washed twice with 200 μl of a Ca- and Mg-free phosphate buffer containing 0.1% Tween-20 (hereinafter referred to as “PBS-T”), and 200 μl of a blocking solution (Dainippon Pharmaceutical Co. Ltd.: BlockAce) was added to each well, and the wells were then allowed to stand at room temperature for 2 hr for blocking.
Separately, phosphate buffered saline (50 μl, pH 7.4) containing 5 μg/ml of anti-phospho-tyrosine antibody (PY20; Transduction Laboratories) was added to a microplate for ELISA (Maxisorp; purchased from NUNC), followed by standing at 4° C. overnight to form a solid phase on the wells. After washing of the plate, 300 μl of a blocking solution was added, followed by standing at room temperature for 2 hr to perform blocking. After washing, the whole quantity of the cell extract was transferred to the wells, and the plate was then allowed to stand at 4° C. overnight. After washing, anti-c-fms antiserum (Upstate Biotechnology, Inc.) was allowed to react at room temperature for one hr, and, after washing, a peroxidase-labeled anti-rabbit Ig antibody (Amersham) was allowed to react at room temperature for one hr. After washing, a chromophoric substrate for peroxidase (Sumitomo Bakelite Co., Ltd.) was added thereto to initiate a reaction. After a suitable level of color development, a reaction termination solution was added to stop the reaction, and the absorbance at 450 nm was measured with a microplate reader. The c-fms phosphorylation activity for each well was determined by presuming the absorbance without the addition of the test compound and with the addition of M-CSF to be 100% c-fms phosphorylation activity and the absorbance without the addition of the test compound and M-CSF to be 0% c-fms phosphorylation activity. The concentration of the test compound was varied on several levels, the c-fms phosphorylation inhibitory rate was determined for each case, and the concentration of the test compound necessary for inhibiting 50% of c-fms phosphorylation (IC50) was calculated.

| SMILES | IC50 [nM] |
| --- | --- |
| COc1cc2nccc(Oc3ccc(NC(=O)NC(C)c4ccc(F)cc4)c(C)c3C)c2cc1OC (stereo not shown) [Example 25, N-{4-[(6,7-Dimethoxy-4-quinolyl)oxy]-2,3-dimethylphenyl}-N′-[1-(4-fluorophenyl)ethyl]urea] | 21.9 |
| COc1cc2nccc(Oc3ccc(NC(=O)N[C@H](C)c4ccc(F)cc4)c(C)c3C)c2cc1OC [Example 27, N-{4-[(6,7-Dimethoxy-4-quinolyl)oxy]-2,3-dimethylphenyl}-N′-[(1R)-1-(4-fluorophenyl)ethyl]urea] | 7.6 |
| COc1cc2nccc(Oc3ccc(NC(=O)NC(C)c4ccc(F)cc4)c(F)c3)c2cc1OC (stereo not shown) [Example 28, N-{4-[(6,7-Dimethoxy-4-quinolyl)oxy]-2-fluorophenyl}-N′-[1-(4-fluorophenyl)ethyl]urea] | 6.5 |
| COc1cc2nccc(Oc3ccc(NC(=O)N[C@@H](C)c4ccc(F)cc4)c(F)c3)c2cc1OC [Example 29, N-{4-[(6,7-Dimethoxy-4-quinolyl)oxy]-2-fluorophenyl}-N′-[(1S)-1-(4-fluorophenyl)ethyl]urea] | 2.3 |
| COc1cc2nccc(Oc3ccc(NC(=O)N[C@@H](C)c4ccccc4OC)cc3)c2cc1OC [Example 51, N-{4-[(6,7-Dimethoxy-4-quinolyl)oxy]phenyl}-N′-[(1S)-1-(2-methoxyphenyl)ethyl]urea] | 7.6 |
| COc1cc2nccc(Oc3ccc(NC(=O)N[C@H](C)c4ccccc4OC)cc3)c2cc1OC [Example 52, N-{4-[(6,7-Dimethoxy-4-quinolyl)oxy]phenyl}-N′-[(1R)-1-(2-methoxyphenyl)ethyl]urea] | 5.5 |
| COc1ccc([C@H](C)NC(=O)Nc2ccc(Oc3ccnc4cc(OC)c(OC)cc34)cc2)cc1 [Example 53, N-{4-[(6,7-Dimethoxy-4-quinolyl)oxy]phenyl}-N′-[(1S)-1-(4-methoxyphenyl)ethyl]urea] | 2.7 |
| COc1cc2nccc(Oc3ccc(NC(=O)N[C@H](C)c4cccc(Br)c4)c(Cl)c3)c2cc1OC [Example 55, N-[(1R)-1-(3-Bromophenyl)ethyl]-N′-{2-chloro-4-[(6,7-dimethoxy-4-quinolyl)oxy]phenyl}urea] | 45.4 |
| COc1cc2nccc(Oc3ccc(NC(=O)N[C@H](C)c4cccc(Br)c4)cc3Cl)c2cc1OC [Example 57, N-[(1R)-1-(3-Bromophenyl)ethyl]-N′-{3-chloro-4-[(6,7-dimethoxy-4-quinolyl)oxy]phenyl}urea] | 128 |
| COc1cc2nccc(Oc3ccc(NC(=O)N[C@H](C)c4cccc(Br)c4)c(C(F)(F)F)c3)c2cc1OC [Example 60, N-[(1R)-1-(3-Bromophenyl)ethyl]-N′-[4-[(6,7-dimethoxy-4-quinolyl)oxy]-2-(trifluoromethyl)phenyl]urea] | 115 |

Second part, the compound after the results:

| IC50 [nM] | SMILES |
| --- | --- |
| 16.3 | COc1cc2nccc(Oc3ccc(NC(=O)N[C@@H](C)c4ccc(F)cc4)c(C)c3C)c2cc1OC [Example 26, N-{4-[(6,7-Dimethoxy-4-quinolyl)oxy]-2,3-dimethylphenyl}-N′-[(1S)-1-(4-fluorophenyl)ethyl]urea] |
| 3.1 | COc1cc2nccc(Oc3ccc(NC(=O)N[C@H](C)c4ccc(F)cc4)c(F)c3)c2cc1OC [Example 30, N-{4-[(6,7-Dimethoxy-4-quinolyl)oxy]-2-fluorophenyl}-N′-[(1R)-1-(4-fluorophenyl)ethyl]urea] |
| 12.9 | COc1cc2nccc(Oc3ccc(NC(=O)NC(C)c4ccc(F)cc4)cc3F)c2cc1OC (stereo not shown) [Example 31, N-{4-[(6,7-Dimethoxy-4-quinolyl)oxy]-3-fluorophenyl}-N′-[1-(4-fluorophenyl)ethyl]urea] |
| 3.5 | COc1cc2nccc(Oc3ccc(NC(=O)N[C@@H](C)c4ccc(F)cc4)cc3F)c2cc1OC [Example 32, N-{4-[(6,7-Dimethoxy-4-quinolyl)oxy]-3-fluorophenyl}-N′-[(1S)-1-(4-fluorophenyl)ethyl]urea] |
| 6.5 | COc1cc2nccc(Oc3ccc(NC(=O)N[C@H](C)c4ccc(F)cc4)cc3F)c2cc1OC [Example 33, N-{4-[(6,7-Dimethoxy-4-quinolyl)oxy]-3-fluorophenyl}-N′-[(1R)-1-(4-fluorophenyl)ethyl]urea] |
| 6.3 | COc1cc2nccc(Oc3ccc(NC(=O)N[C@@H](C)c4ccc(Br)cc4)cc3)c2cc1OC [Example 34, N-[(1S)-1-(4-Bromophenyl)ethyl]-N′-{4-[(6,7-dimethoxy-4-quinolyl)oxy]phenyl}urea] |
| 69.5 | COc1ccc([C@@H](C)NC(=O)Nc2ccc(Oc3ccnc4cc(OC)c(OC)cc34)cc2)cc1 [Example 54, N-{4-[(6,7-Dimethoxy-4-quinolyl)oxy]phenyl}-N′-[(1R)-1-(4-methoxyphenyl)ethyl]urea] |
| 193 | COc1cc2nccc(Oc3cc(C)c(NC(=O)N[C@H](C)c4cccc(Br)c4)cc3C)c2cc1OC [Example 56, N-[(1R)-1-(3-Bromophenyl)ethyl]-N′-{4-[(6,7-dimethoxy-4-quinolyl)oxy]-2,5-dimethylphenyl}urea] |
| 80.9 | COc1cc2nccc(Oc3ccc(NC(=O)N[C@H](C)c4cccc(Br)c4)c(C)c3)c2cc1OC [Example 58, N-[(1R)-1-(3-Bromophenyl)ethyl]-N′-{4-[(6,7-dimethoxy-4-quinolyl)oxy]-2-methylphenyl}urea] |
| 20.3 | COc1cc(Oc2ccnc3cc(OC)c(OC)cc23)ccc1NC(=O)N[C@H](C)c1cccc(Br)c1 [Example 59, N-[(1R)-1-(3-Bromophenyl)ethyl]-N′-{4-[(6,7-dimethoxy-4-quinolyl)oxy]-2-methoxyphenyl}urea] |
| 44.3 | COc1cc2nccc(Oc3ccc(NC(=O)N[C@H](C)c4cccc(Br)c4)cc3OC)c2cc1OC [Example 61, N-[(1R)-1-(3-Bromophenyl)ethyl]-N′-{4-[(6,7-dimethoxy-4-quinolyl)oxy]-3-methoxyphenyl}urea] |
| 29.4 | COc1cc2nccc(Oc3ccc(NC(=O)N[C@H](C)c4cccc(Br)c4)c(C)c3C)c2cc1OC [Example 62, N-[(1R)-1-(3-Bromophenyl)ethyl]-N′-{4-[(6,7-dimethoxy-4-quinolyl)oxy]-2,3-dimethylphenyl}urea] |
